Literature values, collected in patent publication US20050147665A1, “Pharmaceutical and nutritional compositions” (Laxdale Limited, priority 1999, published 2005).

Details: patients with end-stage renal disease; lowering homocysteine by treatment with folic acid

In the case of Nc1nc2ncc(CNc3ccc(C(=O)N[C@@H](CCC(=O)O)C(=O)O)cc3)nc2c(=O)[nH]1 [folic acid], the “elevations of DGLA and AA levels” value is listed as “significant in the cases of DGLA and AA” and the “elevations of EPA and DHA levels” value is listed as “not significant in the cases of EPA and DHA”.
